According to ChEMBL document CHEMBL6178021, “Optimization of Tambjamines Active against Multiple Stages of Malaria Parasites” (J Med Chem, 2025):

Assays:
[1] = Toxicity in CF1 mouse infected with erythrocytic Plasmodium yoelii MRA-428 assessed as adverse event at 10 to 80 mg/kg, po once daily for 4 days measured on day 28 day; type: organism-based; details: in vivo, 96 h, dose 10-80 mg/kg, time 4 day
Plasmodium berghei [2] = experiment: Anti-malarial activity against Luciferase-expressing Plasmodium berghei sporozoites inoculated in Albino C57BL/6 mouse malaria model assessed as reduction in parasites in liver at 40 mg/kg, po by measuring bioluminescence signal measured after 72 hrs relative to control; type: functional; parameters: scale not given: the % may be the effect or the level left
Plasmodium falciparum [3] = experiment: Anti-plasmodial activity against Plasmodium falciparum 3D7 infected in erythrocytes assessed as parasite reduction ratio at 1.188 uM measured 22 to 28 days; type: functional; details: time 22-28 day
Plasmodium berghei [4] = experiment: Anti-malarial activity against Luciferase-expressing Plasmodium berghei sporozoites inoculated in Albino C57BL/6 mouse malaria model assessed as reduction in parasites in liver at 40 mg/kg, po by measuring bioluminescence signal measured after 48 hrs relative to control; type: functional; parameters: scale not given: the % may be the effect or the level left
[5] = Chemical stability of the compound assessed as half life in acetate buffer at pH 4.5; type: physicochemical
Plasmodium berghei [6] = experiment: Anti-malarial activity against Luciferase-expressing Plasmodium berghei sporozoites inoculated in po dosed Albino C57BL/6 mouse malaria model assessed as elimination of parasites in liver by measuring bioluminescence signal measured after 48 hrs; type: functional, organism-based
[7] = MRTlast in ICR-CD1 mouse liver at 40 mg/kg, po; type: ADME, organism-based
[8] = AUCinf in ICR-CD1 mouse plasma at 40 mg/kg, po; type: ADME, organism-based; details: in vivo
[9] = Tmax in ICR-CD1 mouse liver at 40 mg/kg, po; type: ADME, organism-based
[10] = Half life in ICR-CD1 mouse plasma at 40 mg/kg, po; type: ADME, organism-based
[11] = AUCextrap (extrapolated from the last observed time point) in ICR-CD1 mouse plasma at 40 mg/kg, po; type: ADME, organism-based; details: in vivo
Plasmodium falciparum [12] = experiment: Anti-plasmodial activity against ART-resistant Plasmodium falciparum DR1 assessed as growth inhibition measured after 72 hrs by Malaria SYBR Green I-based Fluorescence (MSF) assay; type: functional, organism-based; details: DR1, 72 h
[13] = Apparent oral clearance in ICR-CD1 mouse plasma at 40 mg/kg, po; type: ADME, organism-based; details: in vivo
Plasmodium falciparum [14] = experiment: Anti-plasmodial activity against ART-resistant Plasmodium falciparum DR4 assessed as growth inhibition measured after 72 hrs by Malaria SYBR Green I-based Fluorescence (MSF) assay; type: functional, organism-based; details: DR4, 72 h
[15] = target: Voltage-gated inwardly rectifying potassium channel KCNH2 (Homo sapiens, UniProt Q12809); experiment: Inhibition of hERG expressed in CHO cells by Whole cell patch clamp assay; type: toxicity, cell-based
Voltage-gated inwardly rectifying potassium channel KCNH2, sequence (Q12809 whole entry): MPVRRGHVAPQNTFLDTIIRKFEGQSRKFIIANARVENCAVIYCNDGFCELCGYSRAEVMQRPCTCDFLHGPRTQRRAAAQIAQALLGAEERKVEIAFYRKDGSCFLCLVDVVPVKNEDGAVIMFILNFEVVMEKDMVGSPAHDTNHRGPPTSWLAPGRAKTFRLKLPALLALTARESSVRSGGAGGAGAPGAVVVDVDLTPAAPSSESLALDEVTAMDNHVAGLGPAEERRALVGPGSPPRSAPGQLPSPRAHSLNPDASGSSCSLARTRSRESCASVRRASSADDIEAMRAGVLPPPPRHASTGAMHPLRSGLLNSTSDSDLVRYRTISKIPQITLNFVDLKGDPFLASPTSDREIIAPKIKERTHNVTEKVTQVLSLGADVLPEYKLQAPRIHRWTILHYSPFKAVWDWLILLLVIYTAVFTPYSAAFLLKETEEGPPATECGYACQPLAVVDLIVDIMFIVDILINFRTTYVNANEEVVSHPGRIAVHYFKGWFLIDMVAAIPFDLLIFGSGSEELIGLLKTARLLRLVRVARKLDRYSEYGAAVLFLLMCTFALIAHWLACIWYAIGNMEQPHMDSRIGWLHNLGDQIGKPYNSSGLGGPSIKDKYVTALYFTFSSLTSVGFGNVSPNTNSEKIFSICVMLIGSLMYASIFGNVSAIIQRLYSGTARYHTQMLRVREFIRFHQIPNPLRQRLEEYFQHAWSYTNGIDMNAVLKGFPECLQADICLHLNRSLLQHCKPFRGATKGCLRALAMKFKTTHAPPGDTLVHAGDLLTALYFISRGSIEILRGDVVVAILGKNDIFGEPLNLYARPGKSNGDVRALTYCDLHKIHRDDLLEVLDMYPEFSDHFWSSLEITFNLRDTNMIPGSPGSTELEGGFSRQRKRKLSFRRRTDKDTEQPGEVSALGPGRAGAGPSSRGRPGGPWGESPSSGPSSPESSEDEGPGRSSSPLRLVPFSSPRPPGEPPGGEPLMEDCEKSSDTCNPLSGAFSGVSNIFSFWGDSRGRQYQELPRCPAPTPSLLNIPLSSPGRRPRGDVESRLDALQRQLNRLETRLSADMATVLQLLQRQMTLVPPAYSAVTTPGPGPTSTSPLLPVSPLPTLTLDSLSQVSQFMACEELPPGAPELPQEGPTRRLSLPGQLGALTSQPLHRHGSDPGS

[16] = Metabolic stability in mouse liver microsomes assessed as half life measured up to 60 mins by LC/MS analysis; type: ADME, Microsome
MDR1 (human) [17] = experiment: Apparent permeability across apical to basolateral side in MDCK transfected with human MDR1 cells incubated for 1 hr by LC-MS analysis; details: dog, MDCK-MDR1
Plasmodium yoelii [18] = experiment: Antimalarial activity against erythrocytic Plasmodium yoelii MRA-428 infected in CF1 mouse assessed as cured mouse at 25 mg/kg, po once daily for 4 days measured on day 28 day; type: functional, organism-based; details: time 4.0 day
Plasmodium berghei [19] = experiment: Anti-malarial activity against Luciferase-expressing Plasmodium berghei sporozoites inoculated in Albino C57BL/6 mouse malaria model assessed as increase in survival time at 40 mg/kg, po relative to control; type: functional
[20] = Cmax in ICR-CD1 mouse plasma at 40 mg/kg, po; type: ADME, organism-based
MDR1 (human) [21] = experiment: Apparent permeability across basolateral to apical side in MDCK transfected with human MDR1 cells incubated for 1 hr by LC-MS analysis; details: dog, MDCK-MDR1
[22] = MRTlast in ICR-CD1 mouse plasma at 40 mg/kg, po; type: ADME, organism-based
[23] = Mutagenicity in Salmonella typhimurium TA98 with S9 fraction at 10 uM by Ames test; type: toxicity, subcellular; details: salmonella enterica subsp. enterica serovar typhimurium, s9, 10 µM
[24] = Half life in ICR-CD1 mouse liver at 40 mg/kg, po; type: ADME, organism-based
Plasmodium falciparum [25] = experiment: Antiplasmodial activity against asexual blood-stage Plasmodium falciparum Tm90-C2B using 2% haematocrit and 0.2% parasitemia assessed as reduction in fluorescence measured after 72 hrs by Malaria SYBR Green I-based Fluorescence (MSF) assay; type: functional, organism-based
Plasmodium falciparum [26] = experiment: Anti-plasmodial activity against Plasmodium falciparum 3D7 infected in erythrocytes assessed as parasite clearance time at 1.188 uM measured 22 to 28 days relative to initial population; type: functional; details: time 22-28 day
Plasmodium berghei [27] = experiment: Anti-malarial activity against Luciferase-expressing Plasmodium berghei sporozoites inoculated in po dosed Albino C57BL/6 mouse malaria model assessed as elimination of parasites in blood by measuring bioluminescence signal measured after 72 hrs; type: functional, organism-based
[28] = AUCextrap (extrapolated from the last observed time point) in ICR-CD1 mouse liver at 40 mg/kg, po; type: ADME, organism-based; details: in vivo
HepG2 = experiment: Cytotoxicity against human HepG2 cells assessed as cell viability measured after 48 hrs by MTT assay; type: toxicity, cell-based; details: hepg2
Plasmodium falciparum [29] = experiment: Anti-plasmodial activity against Plasmodium falciparum 3D7 infected in erythrocytes assessed as Lag phase (time to observe the maximal killing effect of the drug) at 1.188 uM; type: functional
Plasmodium falciparum [30] = experiment: microbe, parasite or virus in culture; details: Dd2, 72 h
Description: Antiplasmodial activity against asexual blood-stage Plasmodium falciparum Dd2 using 2% haematocrit and 0.2% parasitemia assessed as reduction in fluorescence measured after 72 hrs by Malaria SYBR Green I-based Fluorescence (MSF) assay

[31] = Mutagenicity in Salmonella typhimurium TA98 at 10 uM by Ames test; type: toxicity; details: salmonella enterica subsp. enterica serovar typhimurium
in vitro [32] = details: human, liver microsomes
[33] = Metabolic stability in human liver microsomes assessed as half life measured up to 60 mins by LC/MS analysis; type: ADME, Microsome
Plasmodium yoelii [34] = experiment: Antimalarial activity against erythrocytic Plasmodium yoelii MRA-428 infected in CF1 mouse assessed as reduction in parasitemia at 80 mg/kg, po once daily for 4 days measured on day 5; type: functional; parameters: scale not given: the % may be the effect or the level left; details: time 4 day
[35] = Apparent oral clearance in ICR-CD1 mouse liver at 40 mg/kg, po; type: ADME, organism-based
Plasmodium yoelii [36] = experiment: Antimalarial activity against erythrocytic Plasmodium yoelii MRA-428 infected in CF1 mouse assessed as reduction in parasitemia at 25 mg/kg, po once daily for 4 days measured on day 5; type: functional; parameters: scale not given: the % may be the effect or the level left; details: time 4 day
in vitro [37] = details: mouse, liver microsomes
Plasmodium yoelii [38] = experiment: Antimalarial activity against erythrocytic Plasmodium yoelii MRA-428 infected in CF1 mouse assessed as reduction in parasitemia at 10 mg/kg, po once daily for 4 days measured on day 5; type: functional; parameters: scale not given: the % may be the effect or the level left; details: time 4 day
[39] = AUCinf in ICR-CD1 mouse liver at 40 mg/kg, po; type: ADME, organism-based
[40] = AUClast in ICR-CD1 mouse plasma at 40 mg/kg, po; type: ADME, organism-based
[41] = AUClast in ICR-CD1 mouse liver at 40 mg/kg, po; type: ADME, organism-based
[42] = Toxicity in Albino C57BL/6 mouse inoculated with Luciferase-expressing Plasmodium berghei sporozoites at 40 mg/kg, po; type: organism-based; details: in vivo
Plasmodium falciparum [43] = experiment: Anti-plasmodial activity against Plasmodium falciparum Dd2 assessed as growth inhibition measured after 72 hrs by Malaria SYBR Green I-based Fluorescence (MSF) assay; type: functional, organism-based; details: Dd2, 72 h
Plasmodium yoelii [44] = experiment: Antimalarial activity against erythrocytic Plasmodium yoelii MRA-428 infected in CF1 mouse assessed as cured mouse at 80 mg/kg, po once daily for 4 days measured on day 28 day; type: functional, organism-based; details: time 4.0 day
[45] = Tmax in ICR-CD1 mouse plasma at 40 mg/kg, po; type: ADME, organism-based
[46] = Chemical stability of the compound assessed as half life in PBS buffer at pH 7.4; type: physicochemical
[47] = Chemical stability of the compound assessed as half life in PBS buffer at pH 6.6 to 9; type: physicochemical

Q: Which Activity [1] does the source give for `CCC1=C(CC)/C(=C/NC2CCCCC2)N=C1c1ccc(C)[nH]1` here?
A: Non-toxic

Q: What about the Activity (Plasmodium berghei [2]) of the same molecule?
A: 97%

Q: What about the “log(activity)” value (Plasmodium falciparum [3]) of the same molecule?
A: 3.83

Q: And the Activity (Plasmodium berghei [4])?
A: 72%

Q: What about the half-life [5] of the same molecule?
A: ≥ 3.33 h

Q: And the Activity (Plasmodium berghei [6])?
A: Dose-dependent-effect

Q: What about the MRT last [7] of the same molecule?
A: 31.6 h

Q: And the AUC [8]?
A: 68123 ng·h/mL

Q: What about the Tmax [9] of the same molecule?
A: 30 h

Q: What about the half-life [10] of the same molecule?
A: 5.64 h

Q: What about the “%AUCextra” value [11] of the same molecule?
A: 0.83%

Q: What about the IC50 (Plasmodium falciparum [12]) of the same molecule?
A: 16.4 nM

Q: What about the CL/F [13] of the same molecule?
A: 0.312 mL/min/kg

Q: And the IC50 (Plasmodium falciparum [14])?
A: 14.1 nM

Q: What about the IC50 [15] of the same molecule?
A: 4400 nM

Q: And the IC20 ([15]; human, cho)?
A: 1900 nM

Q: And the half-life [16]?
A: > 1 h

Q: What about the Papp A→B at 1 h (MDR1 (human) [17]) of the same molecule?
A: 0.013 ×10⁻⁶ cm/s

Q: And the Activity (Plasmodium yoelii [18])?
A: Active; Four Mouse Cured Out Of Four

Q: What about the Survival (Plasmodium berghei [19]) of the same molecule?
A: 3 days

Q: What about the Cmax [20] of the same molecule?
A: 1440 ng/mL

Q: What about the Papp B→A at 1 h (MDR1 (human) [21]) of the same molecule?
A: 0.002 ×10⁻⁶ cm/s

Q: What about the MRT last [22] of the same molecule?
A: 31.5 h

Q: What about the Activity [23] of the same molecule?
A: Non-toxic

Q: And the half-life [24]?
A: 5.07 h

Q: What about the IC50 (Plasmodium falciparum [25]) of the same molecule?
A: 18.4 nM

Q: And the T99.9% (Plasmodium falciparum [26])?
A: 39.5 h

Q: What about the Activity (Plasmodium berghei [27]) of the same molecule?
A: Dose-dependent-effect

Q: What about the “%AUCextra” value [28] of the same molecule?
A: 0.5%

Q: What about the IC50 (HepG2) of the same molecule?
A: 7530 nM

Q: What about the Time (Plasmodium falciparum [29]) of the same molecule?
A: 0 h

Q: What about the IC50 (Plasmodium falciparum [30]) of the same molecule?
A: 8.04 nM

Q: And the Activity [31]?
A: Non-toxic

Q: What about the microsomal CLint at 1 h (in vitro [32]) of the same molecule?
A: 23.6 µL/min/mg

Q: And the half-life [33]?
A: 0.978 h

Q: And the Activity (Plasmodium yoelii [34])?
A: 100%

Q: And the CL/F [35]?
A: 10.8 mL/min/kg

Q: And the Activity (Plasmodium yoelii [36])?
A: 100%

Q: What about the microsomal CLint at 1 h (in vitro [37]) of the same molecule?
A: 19.9 µL/min/mg

Q: And the Activity (Plasmodium yoelii [38])?
A: 88.6%

Q: What about the AUC(0-inf) [39] of the same molecule?
A: 1980 ng·h/mL

Q: What about the AUC(0-t) [40] of the same molecule?
A: 67600 ng·h/mL

Q: What about the AUC(0-t) [41] of the same molecule?
A: 1960 ng·h/mL

Q: And the Activity [42]?
A: Non-toxic

Q: What about the IC50 (Plasmodium falciparum [43]) of the same molecule?
A: 13.9 nM

Q: And the Activity (Plasmodium yoelii [44])?
A: Active; Four Mouse Cured Out Of Four

Q: What about the Tmax [45] of the same molecule?
A: 30 h

Q: What about the t1/2 [46] of the same molecule?
A: 4.5 h

Q: And the half-life [47]?
A: ≥ 3.33 h
